# Where two headings read alike, the source gives them in different places.
# Assay: in vitro
# Type: in vitro ADME
# Conditions: human
# Procedure: The bidirectional permeability of compounds across the Caco-2 cell monolayer was assessed. The Caco-2 model is a widely used in vitro model for small intestinal absorption and potential for efflux.
# Cell culture. Caco-2 cells were grown in DMEM supplemented with 10% fetal bovine serum (FBS), 1% Penicillin-Streptomycin and 1% MEM NEAA. The cells were incubated at 37° C., 5% CO2/95% air and saturated humidity. After reaching 80-90% confluency, the cells were gently detached with trypsin. Cells at passage 39 were seeded on the 24-well BD insert system at the density of 8×10^4 cells/cm^2 and cultured for 19 days with medium changed every 2-3 days. Measure the transepithelial electrical resistance (TEER) value of each well. The wells can be used only when their TEER values are greater than 600 Ohms/cm^2.
# Transport assay. After removing the cell culture medium from the 24-well insert plate, the cells were rinsed with warm transport buffer. Appropriate dosing and receiving solutions were applied to the donor and receiver chambers to initiate the transport assay in apical to basolateral (A to B) or basolateral to apical (B to A) directions ([…] for apical and basolateral wells, respectively). Duplicate wells in each direction were used for the test compound and control compound. The plate was incubated in CO2 incubator at 37° C., with 5% CO2/95% air and saturated humidity without shaking. The sample after 10-minute incubation was used as the T0 sample, and the sample after 90-minute incubation was used as the T90 sample. To and T90 samples were collected from the donor and receiver side of each well at the designed timepoint, mixed with the transport buffer and acetonitrile/MeOH (1:1, v/v) and the internal standard for LC/MS/MS analysis. All samples were vortexed and centrifuged at 4000 rpm at 4° C. for 15 minutes, diluted with pure water and stored at 4° C. before bioanalysis by LC/MS/MS.
# Sample analysis. The concentrations of test compounds and control compounds in Caco-2 cells were quantitatively determined by LC/MS/MS method after protein precipitation.
# Calculations. The apparent permeability (Papp, cm/s), efflux ratio (ER) and recovery parameters were calculated for Caco-2 drug transport assay using the following equations:
# [formula] [formula] where VR is the solution volume in the receiver chamber (0.4 mL on the apical side, 1.2 mL on the basolateral side); Area is the surface area for the insert membrane, i.e., 0.3 cm^2 for the area of the monolayer; Time is incubation time, expressed in seconds, i.e., 5400 s (90 min) for the current experiment; Co is the initial concentration of test compound or peak area ratio of control compounds in the donor chamber (μM); VD is the volume in the donor chambers (0.4 mL on the apical side, 1.2 mL on the basolateral side); CD and CR are the final concentrations of test compounds or peak area ratio of control compounds in donor and receiver chambers, respectively.
# Compounds with Papp<1.0 are classified as low permeability, Papp between 1-10 are classified as medium permeability, and Papp≥10 are classified as high permeability. An efflux ratio (ER)>2 indicates the compounds are potential substrates for intestinal cell efflux transporters.
# [1] = Caco-2 monolayer, apical to basolateral, 90-minute incubation, read-out: Papp, A-B
# [2] = Caco-2 monolayer, basolateral to apical, 90-minute incubation, read-out: Papp, B-A
# [3] = Caco-2 monolayer, ER>2 indicates potential efflux transporter substrate, read-out: ER (efflux ratio)
SMILES,Papp A→B at 90 min (Caco-2),Papp B→A at 90 min (Caco-2),efflux ratio at 90 min (Caco-2),Papp A→B at 90 min [1],Papp B→A at 90 min [2],efflux ratio at 90 min [3]
"CC(=O)O[C@H]1[C@@H](O)[C@](C#N)(c2ccc3c(N)ncnn23)O[C@@H]1COC(=O)CC1CCCCC1 [Compound 29, ((2R,3S,4R,5R)-3-acetoxy-5-(4-aminopyrrolo[2,1-f][1,2,4]triazin-7-yl)-5-cyano-4-hydroxytetrahydrofuran-2-yl)methyl 2-cyclohexylacetate]",2 ×10⁻⁶ cm/s,2.1 ×10⁻⁶ cm/s,1.1,–,–,–
"CC(C)C(=O)O[C@H]1[C@@H](O)[C@](C#N)(c2ccc3c(N)ncnn23)O[C@@H]1COC(=O)CC1CCCCC1 [Compound 30, (2R,3S,4R,5R)-5-(4-aminopyrrolo[2,1-f][1,2,4]triazin-7-yl)-5-cyano-2-((2-cyclohexylacetoxy)methyl)-4-hydroxytetrahydrofuran-3-yl isobutyrate]",7.3 ×10⁻⁶ cm/s,7.1 ×10⁻⁶ cm/s,1,–,–,–
"CCC(=O)O[C@H]1[C@@H](O)[C@](C#N)(c2ccc3c(N)ncnn23)O[C@@H]1COC(=O)CC1CCCCC1 [Compound 31, (2R,3S,4R,5R)-5-(4-aminopyrrolo[2,1-f][1,2,4]triazin-7-yl)-5-cyano-2-((2-cyclohexylacetoxy)methyl)-4-hydroxytetrahydrofuran-3-yl propionate]",5.6 ×10⁻⁶ cm/s,5.6 ×10⁻⁶ cm/s,1,–,–,–
"CC(C)(C)C(=O)OCO[C@H]1[C@@H](O)[C@](C#N)(c2ccc3c(N)ncnn23)O[C@@H]1COC(=O)CC1CCCCC1 [Compound 32, (((2R,3S,4R,5R)-5-(4-aminopyrrolo[2,1-f][1,2,4]triazin-7-yl)-5-cyano-2-((2-cyclohexylacetoxy)methyl)-4-hydroxytetrahydrofuran-3-yl)oxy)methyl pivalate]",6.9 ×10⁻⁶ cm/s,5.5 ×10⁻⁶ cm/s,0.8,–,–,–
"CC(C)[C@H](N)C(=O)OC[C@H]1O[C@@](C#N)(c2ccc3c(N)ncnn23)[C@H](O)[C@@H]1OC(=O)CC1CCCCC1 [Compound 34, ((2R,3S,4R,5R)-5-(4-aminopyrrolo[2,1-f][1,2,4]triazin-7-yl)-5-cyano-3-(2-cyclohexylacetoxy)-4-hydroxytetrahydrofuran-2-yl)methyl L-valinate]",1.6 ×10⁻⁶ cm/s,4.8 ×10⁻⁶ cm/s,3,–,–,–
"CC(C)[C@H](N)C(=O)OC[C@H]1O[C@@](C#N)(c2ccc3c(N)ncnn23)[C@H](O)[C@@H]1OC(=O)Cc1ccccc1 [Compound 36, ((2R,3S,4R,5R)-5-(4-aminopyrrolo[2,1-f][1,2,4]triazin-7-yl)-5-cyano-4-hydroxy-3-(2-phenylacetoxy)tetrahydrofuran-2-yl)methyl L-valinate]",–,–,–,1.1 ×10⁻⁶ cm/s,10.3 ×10⁻⁶ cm/s,9.8
"CC(=O)O[C@H]1[C@@H](O)[C@](C#N)(c2ccc3c(N)ncnn23)O[C@@H]1COC(=O)[C@@H](N)C(C)C [Compound 37, ((2R,3S,4R,5R)-3-acetoxy-5-(4-aminopyrrolo[2,1-f][1,2,4]triazin-7-yl)-5-cyano-4-hydroxytetrahydrofuran-2-yl)methyl L-valinate]",0.37 ×10⁻⁶ cm/s,0.12 ×10⁻⁶ cm/s,0.33,–,–,–
"CC(C)C(=O)O[C@H]1[C@@H](O)[C@](C#N)(c2ccc3c(N)ncnn23)O[C@@H]1COC(=O)[C@@H](N)C(C)C [Compound 38, ((2R,3S,4R,5R)-5-(4-aminopyrrolo[2,1-f][1,2,4]triazin-7-yl)-5-cyano-4-hydroxy-3-(isobutyryloxy)tetrahydrofuran-2-yl)methyl L-valinate]",0.22 ×10⁻⁶ cm/s,3.3 ×10⁻⁶ cm/s,15,–,–,–
"CCC(=O)O[C@H]1[C@@H](O)[C@](C#N)(c2ccc3c(N)ncnn23)O[C@@H]1COC(=O)[C@@H](N)C(C)C [Compound 39, ((2R,3S,4R,5R)-5-(4-aminopyrrolo[2,1-f][1,2,4]triazin-7-yl)-5-cyano-4-hydroxy-3-(propionyloxy)tetrahydrofuran-2-yl)methyl L-valinate]",–,–,–,0.23 ×10⁻⁶ cm/s,2.3 ×10⁻⁶ cm/s,10
"CC(C)CC(=O)O[C@H]1[C@@H](O)[C@](C#N)(c2ccc3c(N)ncnn23)O[C@@H]1COC(=O)Cc1ccccc1 [Compound 41, (2R,3S,4R,5R)-5-(4-aminopyrrolo[2,1-f][1,2,4]triazin-7-yl)-5-cyano-4-hydroxy-2-((2-phenylacetoxy)methyl)tetrahydrofuran-3-yl 3-methylbutanoate]",–,–,–,19 ×10⁻⁶ cm/s,31 ×10⁻⁶ cm/s,1.6
"CC(C)[C@H](N)C(=O)O[C@H]1[C@@H](O)[C@](C#N)(c2ccc3c(N)ncnn23)O[C@@H]1COC(=O)Cc1ccccc1 [Compound 43, (2R,3S,4R,5R)-5-{4-aminopyrrolo[2,1-f][1,2,4]triazin-7-yl}-5-cyano-4-hydroxy-2-{[(2-phenylacetyl)oxy]methyl}oxolan-3-yl (2S)-2-amino-3-methylbutanoate]",–,–,–,0.74 ×10⁻⁶ cm/s,0.22 ×10⁻⁶ cm/s,0.3
"N#C[C@@]1(c2ccc3c(N)ncnn23)O[C@H](COC(=O)Cc2ccccc2)[C@@H](OC(=O)Cc2ccccc2)[C@H]1O [Compound 44, (2R,3S,4R,5R)-5-(4-aminopyrrolo[2,1-f][1,2,4]triazin-7-yl)-5-cyano-4-hydroxy-2-((2-phenylacetoxy)methyl)tetrahydrofuran-3-yl 2-phenylacetate]",–,–,–,9.8 ×10⁻⁶ cm/s,25 ×10⁻⁶ cm/s,2.5
"CC(=O)O[C@H]1[C@@H](O)[C@](C#N)(c2ccc3c(N)ncnn23)O[C@@H]1COC(=O)Cc1ccccc1 [Compound 45, ((2R,3S,4R,5R)-3-acetoxy-5-(4-aminopyrrolo[2,1-f][1,2,4]triazin-7-yl)-5-cyano-4-hydroxytetrahydrofuran-2-yl)methyl 2-phenylacetate]",–,–,–,0.8 ×10⁻⁶ cm/s,3.4 ×10⁻⁶ cm/s,4.3
"CC(C)C(=O)O[C@H]1[C@@H](O)[C@](C#N)(c2ccc3c(N)ncnn23)O[C@@H]1COC(=O)Cc1ccccc1 [Compound 46, (2R,3S,4R,5R)-5-(4-aminopyrrolo[2,1-f][1,2,4]triazin-7-yl)-5-cyano-4-hydroxy-2-((2-phenylacetoxy)methyl)tetrahydrofuran-3-yl isobutyrate]",–,–,–,2.7 ×10⁻⁶ cm/s,4.8 ×10⁻⁶ cm/s,1.8
"CCC(=O)O[C@H]1[C@@H](O)[C@](C#N)(c2ccc3c(N)ncnn23)O[C@@H]1COC(=O)Cc1ccccc1 [Compound 47, (2R,3S,4R,5R)-5-(4-aminopyrrolo[2,1-f][1,2,4]triazin-7-yl)-5-cyano-4-hydroxy-2-((2-phenylacetoxy)methyl)tetrahydrofuran-3-yl propionate]",–,–,–,2 ×10⁻⁶ cm/s,5.1 ×10⁻⁶ cm/s,2.5
"CC(C)(C)C(=O)OCO[C@H]1[C@@H](O)[C@](C#N)(c2ccc3c(N)ncnn23)O[C@@H]1COC(=O)Cc1ccccc1 [Compound 48, {[(2R,3S,4R,5R)-5-{4-aminopyrrolo[2,1-f][1,2,4]triazin-7-yl}-5-cyano-4-hydroxy-2-{[(2-phenylacetyl)oxy]methyl}oxolan-3-yl]oxy}methyl 2,2-dimethylpropanoate]",–,–,–,6.9 ×10⁻⁶ cm/s,1.9 ×10⁻⁶ cm/s,0.27
"CC(=O)OC[C@H]1O[C@@](C#N)(c2ccc3c(N)ncnn23)[C@H](O)[C@@H]1OC(=O)CC(C)C [Compound 49, (2R,3S,4R,5R)-2-(acetoxymethyl)-5-(4-aminopyrrolo[2,1-f][1,2,4]triazin-7-yl)-5-cyano-4-hydroxytetrahydrofuran-3-yl 3-methylbutanoate]",3.9 ×10⁻⁶ cm/s,2.7 ×10⁻⁶ cm/s,0.7,–,–,–
"CC(=O)OC[C@H]1O[C@@](C#N)(c2ccc3c(N)ncnn23)[C@H](O)[C@@H]1OC(=O)CC1CCCCC1 [Compound 50, (2R,3S,4R,5R)-2-(acetoxymethyl)-5-(4-aminopyrrolo[2,1-f][1,2,4]triazin-7-yl)-5-cyano-4-hydroxytetrahydrofuran-3-yl 2-cyclohexylacetate]",1.9 ×10⁻⁶ cm/s,0.76 ×10⁻⁶ cm/s,0.39,–,–,–
